Like-named read-outs stand apart in the source and are kept apart here.

In one experiment the target is T1, recombinant Plk1 (Homo sapiens, UniProt P53350).
T1 construct: The full-length Plk1 protein is expressed in insect cells as an N-terminal 6His tag fusion; 6His (N); made in house; host or cells: insect cells (Plk1); E. coli (GST-Cdc25C substrate)
Description: In vitro Plk1 enzyme assay (SPA). It is filed as biochemical. The text has this:
The assay uses Scintillation Proximity Assay (SPA) technology (Antonsson et al., Analytical Biochemistry, 1999, 267: 294-299) to determine the ability of test compounds to inhibit phosphorylation by recombinant Plk1. The full-length Plk1 protein is expressed in insect cells as an N-terminal 6His tag fusion and purified by standard Nickel chelate purification techniques using the His tag.
The amino terminal fragment of Cdc25C (encoding residues 1-165) is expressed in E. coli as a GST fusion and purified using the GST tag by standard purification techniques.
Test compounds were prepared as 10 mM stock solutions in dimethyl sulphoxide (DMSO) and diluted into water as required to give a range of final assay concentrations. Aliquots (5 μl) of each compound dilution were dispensed into a well of a 384-well flat bottom white polystyrene plate (Matrix, Catalogue No. 4316). A 35 μl mixture of recombinant purified Plk1 enzyme (12 ng/well), purified GST-Cdc25C (150 ng/well), adenosine triphosphate (ATP; 64 nM), ^33P-labelled adenosine triphosphate (^33P-ATP; 60 nCi/well) in a buffer solution [comprising 50 mM HEPES pH7.5 buffer, 10 mM manganese chloride (MnCl2), 1 mM dithiothreitol (DTT), 1 mg/ml bovine serum albumin (BSA), 100 μM sodium vanadate (Na3VO4), 100 μM sodium fluoride (NaF) and 10 mM sodium glycerophosphate] was added and the reactions incubated at ambient temperature for 90 minutes.
Reactions were stopped by addition of EDTA (110 mM) and the Cdc25C substrate captured via its GST tag to anti-GST antibody (Molecular Probes, Cat No A-5800) coated Protein A PVT SPA beads (Amersham Biosciences, Catalogue No. RPQ0019; 250 μg/well) in 50 mM HEPES pH7.5 buffer containing 0.05% (w/v) sodium azide and incubated for up to 2 hours, followed by the addition of 20 μl of 4M caesium chloride (final assay concentration of 1M). Plates were then left in the dark overnight before counting on a Packard TopCount NXT.
Radiolabelled phosphorylated substrate is formed in situ as a result of Plk1 mediated phosphorylation. The SPA beads contain a scintillant that can be stimulated to emit light. This stimulation only occurs when a radiolabelled phosphorylated substrate is bound to the surface of the coated SPA bead causing the emission of blue light that can be measured on a scintillation counter. Accordingly, the extent of Plk1 mediated Cdc25C phosphorylation was assessed. The raw assay data were then analysed by non-linear regression analysis and Plk1 enzyme inhibition for a given test compound is expressed as an IC50 value.

Experiment [1] concerns human colon tumour cell line HT29. Description: Cellular assay: phosphohistone H3 mitotic marker in HT29 cells. To be noted: HT-29, 24 h, phosphohistone H3 staining. It is filed as cell-based. How it is done: Chromosome condensation in mitosis is accompanied by phosphorylation of histone H3 on serine 10. Dephosphorylation begins in anaphase and ends at early telophase, thus histone H3 serine 10 phosphorylation acts as an excellent mitotic marker and is used to determine the ability of compounds of the present invention to block cells in mitosis.
Cells of the human colon tumour cell line HT29 were seeded into 96 well black plates (Costar, Catalogue No 3904) in phenol red free Dulbecco's Modified Eagles Medium (DMEM) supplemented with 10% (v/v) FCS and 1% (v/v) L-Glutamine and incubated overnight at 37° C. […] Cells were again washed with PBS and incubated with 50 μl secondary antibody (1:1000 Alexa Fluor 488 goat anti-rabbit (Molecular Probes Cat No A-11008) and Hoechst (1:10000) diluted in PBS 0.05% (v/v) Tween 20 and left for 1 hour at room temperature in the dark. Cells were washed with PBS then covered with fresh PBS and stored at 4° C. until analysis. Images are acquired and analysed in an automated manner using the Cellomics ArrayScan II or VTi. In this assay both hoechst and phosphohistone H3 staining are measured. Hoechst staining generates a valid cell count while phosphohistone H3 staining determines the number of mitotic cells. […] The raw assay data were analysed by non-linear regression analysis and used to determine an IC50 value for each compound.

The mark [2] stands for this setting: Plk1 enzyme, class symbols for IC50, read-out: Kinase Inhibition.

T1 sequence (P53350 whole entry, the tested form may be a part): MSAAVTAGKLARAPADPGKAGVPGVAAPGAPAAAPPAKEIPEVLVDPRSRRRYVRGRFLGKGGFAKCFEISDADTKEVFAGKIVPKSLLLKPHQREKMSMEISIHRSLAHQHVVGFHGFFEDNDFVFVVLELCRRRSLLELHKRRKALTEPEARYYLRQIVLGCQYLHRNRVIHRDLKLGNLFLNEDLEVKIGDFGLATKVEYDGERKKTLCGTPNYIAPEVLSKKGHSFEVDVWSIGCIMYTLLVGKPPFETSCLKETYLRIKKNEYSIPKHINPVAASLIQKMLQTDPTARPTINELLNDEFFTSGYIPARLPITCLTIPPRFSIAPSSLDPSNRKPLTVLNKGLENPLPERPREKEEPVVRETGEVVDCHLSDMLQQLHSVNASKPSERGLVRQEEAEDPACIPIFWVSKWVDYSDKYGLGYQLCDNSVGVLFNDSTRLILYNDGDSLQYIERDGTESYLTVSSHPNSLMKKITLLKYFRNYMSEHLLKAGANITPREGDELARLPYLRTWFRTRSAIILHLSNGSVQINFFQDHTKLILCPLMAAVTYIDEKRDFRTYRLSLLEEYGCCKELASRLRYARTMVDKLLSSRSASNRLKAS

`CCOc1cc(C(=O)NC2CCN(C)CC2)ccc1Nc1ncc2c(n1)N(C1CCCC1)[C@H](CC)CN2C` [Example 8, 4-[[(7R)-8-Cyclopentyl-7-ethyl-5-methyl-6,7-dihydropteridin-2-yl]amino]-3-ethoxy-N-(1-methyl-4-piperidyl)benzamide]: the IC50 at recombinant Plk1 (setting [2]) is below 3 µM.

For the compound `COc1cc(C(=O)NC2CCN(C)CC2)ccc1Nc1ncc2c(n1)N(C1CCCC1)[C@H](C1CC1)CN2C` [Example 6, 4-{[(7R)-8-Cyclopentyl-7-cyclopropyl-5-methyl-5,6,7,8-tetrahydropteridin-2-yl]amino}-3-methoxy-N-(1-methylpiperidin-4-yl)benzamide], the IC50 at recombinant Plk1 (Plk1 enzyme assay, read-out: IC50 value in the enzyme assay) is 0.699 µM; at recombinant Plk1 (setting [2]), below 3 µM; in experiment [1] it was 0.256 µM.

Regarding `CC[C@@H]1CN(C)c2cnc(Nc3ccc(C(=O)NCC(C)(C)CN(C)C)cc3OC)nc2N1C1CCCC1` [Example 2, 4-[[(7R)-8-Cyclopentyl-7-ethyl-5-methyl-6,7-dihydropteridin-2-yl]amino]-N-(3-dimethylamino-2,2-dimethyl-propyl)-3-methoxy-benzamide], at recombinant Plk1 (setting [2]), the IC50 was below 3 µM.

As to `CC[C@@H]1CN(C)c2cnc(Nc3ccc(C(=O)NC4CCN(C)CC4)cc3OC)nc2N1C1CCCC1` [Example 1, 4-[[(7R)-8-Cyclopentyl-7-ethyl-5-methyl-6,7-dihydropteridin-2-yl]amino]-3-methoxy-N-(1-methyl-4-piperidyl)benzamide], the IC50 on recombinant Plk1 (setting [2]) was below 3 µM.

Consider `CC[C@@H]1CN(C)c2cnc(Nc3ccc(CNCC(C)(C)CN(C)C)cc3OC)nc2N1C1CCCC1` [Example 3, N-[[4-[[(7R)-8-Cyclopentyl-7-ethyl-5-methyl-6,7-dihydropteridin-2-yl]amino]-3-methoxy-phenyl]methyl]-N′,N′,2,2-tetramethyl-propane-1,3-diamine], for which, on recombinant Plk1 (setting [2]), the IC50 is 6 to 15 µM.

As for `CC[C@@H]1CN(CC)c2cnc(Nc3ccc(C(=O)NC4CCN(C)CC4)cc3OC)nc2N1C1CCCC1` [Example 5, 4-[[(7R)-8-Cyclopentyl-5,7-diethyl-6,7-dihydropteridin-2-yl]amino]-3-methoxy-N-(1-methyl-4-piperidyl)benzamide], the IC50 at recombinant Plk1 (setting [2]) was below 3 µM.

Regarding `CCC[C@@H]1CN(C)c2cnc(Nc3ccc(C(=O)NC4CCN(C)CC4)cc3OC)nc2N1C1CCCC1` [Example 7, 4-{[(7R)-8-Cyclopentyl-5-methyl-7-propyl-5,6,7,8-tetrahydropteridin-2-yl]amino}-3-methoxy-N-(1-methylpiperidin-4-yl)benzamide], the IC50 at recombinant Plk1 (setting [2]) is below 3 µM.

For `CC[C@@H]1CN(C)c2cnc(Nc3ccc(CNC4CCN(C)CC4)c(F)c3)nc2N1C1CCCC1` [Example 4, (7R)-8-Cyclopentyl-7-ethyl-N-[3-fluoro-4-[[(1-methyl-4-piperidyl)amino]methyl]phenyl]-5-methyl-6,7-dihydropteridin-2-amine], the IC50 on recombinant Plk1 (setting [2]) was in the range of 3 to 6 µM.

(Values after patent publication US20090312336A1, “DIHYDROPTERIDINE COMPOUNDS AS ANTI PROLIFERATIVE AGENTS” (ASTRAZENECA AB, priority 2006, published 2009).)
